Laboratory results taken from patent publication US20240287070A1, “FUSED HETEROCYCLIC DERIVATIVES” (Janssen Sciences Ireland Unlimited Company, priority 2021, published 2024).

Legend:
[1] = system: HBV (HepG2.117 cell line, inducibly HBV producing); test: Anti-HBV activity, intracellular HBV DNA by real-time PCR in HepG2.117 cell line; assay type: cell-based, hepatitis B virus; conditions: HepG2.117 cells, 3 days of treatment
Outline: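 First, HBV replication is induced in HepG2.117 cells by doxycycline absence. Next, serially diluted compound is added for 3 days. Finally, intracellular HBV DNA is quantified by HBV-specific real-time PCR.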

[2] = Cytotoxicity, ATPlite Luminescence Assay; assay type: cell-based, human; conditions: human, HepG2 or HepG2.117 cells, 3-days incubation unless marked with *
Outline: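 HepG2/HepG2.117; compound exposure 3–4 d; viability readout = ATPlite luminescence.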

[3] = Human liver microsome stability; assay type: in vitro ADME; conditions: 1 μM compound, NADPH 1 mM, 37° C., 0-60 min; for half-life at 1 μM: human, pooled human liver microsomes, pH 7.4, pooled human liver microsomes 0.5 mg/mL, read-out: HLM Metabolism t1/2; for HLM Metabolism t1/2: pooled human liver microsomes 0.5 mg/mL
Outline: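 Half-life came from elimination rate constant (negative slope of ln compound/internal standard area ratio over time), measured by cassette LC-MS after acetonitrile quench. Human liver microsome reactions, one replicate per compound, were initiated with NADPH (1 mM final) and sampled at six points up to 60 min.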

[4] = Hepatitis B virus, HepG2.117, 72 h

| Structure (SMILES) | EC50 [1] [µM] | CC50 at 3 days [2] [µM] | half-life at 1 μM [3] [h] | EC50 [1, 4] [µM] | HLM Metabolism t1/2 [3] [h] |
| --- | --- | --- | --- | --- | --- |
| CC(c1cnc(N2CCOC[C@@H]2C)nc1)N1C[C@@H](C)n2nc3c(c2C1=O)CN(C(=O)c1ccc(Cl)c(C(F)(F)F)c1)[C@H](C)C3 (single isomer, unassigned) [Compound 38A, (3R,7R)-2-(4-chloro-3-(trifluoromethyl)benzoyl)-3,7-dimethyl-9-((R*)-1-(2-((S)-3-methylmorpholino)pyrimidin-5-yl)ethyl)-1,2,3,4,8,9-hexahydropyrido[4′,3′:3,4]pyrazolo[1,5-a]pyrazin-10(7H)-one] | 0.06 | 47 | 1.01 |  |  |
| CC(c1ncccn1)N1C[C@@H](C)n2nc3c(c2C1=O)CN(C(=O)c1ccc(Cl)c(Cl)c1)[C@H](C)C3 (single isomer, unassigned) [Compound 39A, (3R,7R)-2-(3,4-dichlorobenzoyl)-3,7-dimethyl-9-((R*)-1-(pyrimidin-2-yl)ethyl)-1,2,3,4,8,9-hexahydropyrido[4′,3′:3,4]pyrazolo[1,5-a]pyrazin-10(7H)-one] | 0.13 | > 50 | 1.59 |  |  |
| CC(c1ncc(C(F)(F)F)cn1)N1C[C@@H](C)n2nc3c(c2C1=O)CN(C(=O)c1ccc(Cl)c(Cl)c1)[C@H](C)C3 (single isomer, unassigned) [Compound 40A, (3R,7R)-2-(3,4-dichlorobenzoyl)-3,7-dimethyl-9-((R*)-1-(5-(trifluoromethyl)pyrimidin-2-yl)ethyl)-1,2,3,4,8,9-hexahydropyrido[4′,3′:3,4]pyrazolo[1,5-a]pyrazin-10(7H)-one] | 0.054 | 22 | > 3 |  |  |
| CC(c1cnc(C(C)(C)O)cn1)N1C[C@@H](C)n2nc3c(c2C1=O)CN(C(=O)c1ccc(Cl)c(C(F)(F)F)c1)[C@H](C)C3 (single isomer, unassigned) [Compound 41A, (3R,7R)-2-(4-chloro-3-(trifluoromethyl)benzoyl)-9-((R*)-1-(5-(2-hydroxypropan-2-yl)pyrazin-2-yl)ethyl)-3,7-dimethyl-1,2,3,4,8,9-hexahydropyrido[4′,3′:3,4]pyrazolo[1,5-a]pyrazin-10(7H)-one] | 0.076 | > 50 | > 3 |  |  |
| CC(c1ccn(CC(F)(F)F)n1)N1C[C@@H](C)n2nc3c(c2C1=O)CN(C(=O)c1ccc(Cl)c(C#N)c1)[C@H](C)C3 (single isomer, unassigned) [Compound 42B, 2-chloro-5-((3R,7R)-3,7-dimethyl-10-oxo-9-((S*)-1-(1-(2,2,2-trifluoroethyl)-1H-pyrazol-3-yl)ethyl)-1,2,3,4,7,8,9,10-octahydropyrido[4′,3′:3,4]pyrazolo[1,5-a]pyrazine-2-carbonyl)benzonitrile] |  | > 50 | > 3 | 0.06 |  |
| Cc1nnc(C(C)N2C[C@@H](C)n3nc4c(c3C2=O)CN(C(=O)c2ccc(Cl)c(Cl)c2)[C@H](C)C4)o1 (single isomer, unassigned) [Compound 43A, (3R,7R)-2-(3,4-dichlorobenzoyl)-3,7-dimethyl-9-((R*)-1-(5-methyl-1,3,4-oxadiazol-2-yl)ethyl)-1,2,3,4,8,9-hexahydropyrido[4′,3′:3,4]pyrazolo[1,5-a]pyrazin-10(7H)-one] | 0.31 | > 50 | > 3 |  |  |
| CC(c1nnc(C2CC2)o1)N1C[C@@H](C)n2nc3c(c2C1=O)CN(C(=O)c1ccc(Cl)c(Cl)c1)[C@H](C)C3 (single isomer, unassigned) [Compound 44A, (3R,7R)-9-((R*)-1-(5-cyclopropyl-1,3,4-oxadiazol-2-yl)ethyl)-2-(3,4-dichlorobenzoyl)-3,7-dimethyl-1,2,3,4,8,9-hexahydropyrido[4′,3′:3,4]pyrazolo[1,5-a]pyrazin-10(7H)-one] | 0.22 | > 50 | > 3 |  |  |
| CC(c1cc(F)c(=O)n(C)c1)N1C[C@@H](C)n2nc3c(c2C1=O)CN(C(=O)c1ccc(Cl)c(Cl)c1)[C@H](C)C3 (single isomer, unassigned) [Compound 45B, (3R,7R)-2-(3,4-dichlorobenzoyl)-9-((S*)-1-(5-fluoro-1-methyl-6-oxo-1,6-dihydropyridin-3-yl)ethyl)-3,7-dimethyl-1,2,3,4,8,9-hexahydropyrido[4′,3′:3,4]pyrazolo [1,5-a]pyrazin-10(7H)-one] |  | > 50 | > 3 | 0.027 |  |
| CC(c1cc(F)c(=O)n(C2CC2)c1)N1C[C@@H](C)n2nc3c(c2C1=O)CN(C(=O)c1ccc(Cl)c(Cl)c1)[C@H](C)C3 (single isomer, unassigned) [Compound 46A, (3R,7R)-9-((R*)-1-(1-cyclopropyl-5-fluoro-6-oxo-1,6-dihydropyridin-3-yl)ethyl)-2-(3,4-dichlorobenzoyl)-3,7-dimethyl-1,2,3,4,8,9-hexahydropyrido[4′,3′:3,4]pyrazolo[1,5-a]pyrazin-10(7H)-one] | 0.31 | > 50 | > 3 |  |  |
| CC(c1ccn(C(C)C)c(=O)c1)N1C[C@@H](C)n2nc3c(c2C1=O)CN(C(=O)c1ccc(Cl)c(C(F)(F)F)c1)[C@H](C)C3 (single isomer, unassigned) [Compound 47A, (3R,7R)-2-(4-chloro-3-(trifluoromethyl)benzoyl)-9-((R*)-1-(1-isopropyl-2-oxo-1,2-dihydropyridin-4-yl)ethyl)-3,7-dimethyl-1,2,3,4,8,9-hexahydropyrido[4′,3′:3,4]pyrazolo[1,5-a]pyrazin-10(7H)-one] | 0.068 | > 50 |  |  | 0.888 |
| CC(C)Oc1cc(C(C)N2C[C@@H](C)n3nc4c(c3C2=O)CN(C(=O)c2ccc(Cl)c(C(F)(F)F)c2)[C@H](C)C4)ccn1 (single isomer, unassigned) [Compound 48A, (3R,7R)-2-(4-chloro-3-(trifluoromethyl)benzoyl)-9-((R*)-1-(2-isopropoxypyridin-4-yl)ethyl)-3,7-dimethyl-1,2,3,4,8,9-hexahydropyrido[4′,3′:3,4]pyrazolo [1,5-a]pyrazin-10(7H)-one] |  | 22.1 | 2.22 | 0.052 |  |
| CC(c1ccn(C(F)F)c(=O)c1)N1C[C@@H](C)n2nc3c(c2C1=O)CN(C(=O)c1ccc(Cl)c(C(F)(F)F)c1)[C@H](C)C3 (single isomer, unassigned) [Compound 49A, (3R,7R)-2-(4-chloro-3-(trifluoromethyl)benzoyl)-9-((R*)-1-(1-(difluoromethyl)-2-oxo-1,2-dihydropyridin-4-yl)ethyl)-3,7-dimethyl-1,2,3,4,8,9-hexahydropyrido [4′,3′:3,4]pyrazolo[1,5-a]pyrazin-10(7H)-one] | 0.041 | > 50 |  |  | 1.32 |
| CC(c1ccnc(OC(F)F)c1)N1C[C@@H](C)n2nc3c(c2C1=O)CN(C(=O)c1ccc(Cl)c(C(F)(F)F)c1)[C@H](C)C3 (single isomer, unassigned) [Compound 50A, (3R,7R)-2-(4-chloro-3-(trifluoromethyl)benzoyl)-9-((R*)-1-(2-(difluoromethoxy)pyridin-4-yl)ethyl)-3,7-dimethyl-1,2,3,4,8,9-hexahydropyrido[4′,3′:3,4]pyrazolo[1,5-a]pyrazin-10(7H)-one] | 0.066 | 12.5 | > 3 |  |  |
| CC(c1ccn(CC(F)(F)F)c(=O)c1)N1C[C@@H](C)n2nc3c(c2C1=O)CN(C(=O)c1ccc(Cl)c(Cl)c1)[C@H](C)C3 (single isomer, unassigned) [Compound 51A, (3R,7R)-2-(3,4-dichlorobenzoyl)-3,7-dimethyl-9-((R*)-1-(2-oxo-1-(2,2,2-trifluoroethyl)-1,2-dihydropyridin-4-yl)ethyl)-1,2,3,4,8,9-hexahydropyrido[4′,3′:3,4]pyrazolo[1,5-a]pyrazin-10(7H)-one] | 0.06 | > 50 | > 3 |  |  |
| CC(c1cnn(C)c(=O)c1)N1C[C@@H](C)n2nc3c(c2C1=O)CN(C(=O)c1ccc(Cl)c(C(F)(F)F)c1)[C@H](C)C3 (single isomer, unassigned) [Compound 52A, (3R,7R)-2-(4-chloro-3-(trifluoromethyl)benzoyl)-3,7-dimethyl-9-((R*)-1-(1-methyl-6-oxo-1,6-dihydropyridazin-4-yl)ethyl)-1,2,3,4,8,9-hexahydropyrido [4′,3′:3,4]pyrazolo[1,5-a]pyrazin-10(7H)-one] | 0.12 | > 50 |  |  | 1.48 |
| CC(c1cnn(C(C)C)c(=O)c1)N1C[C@@H](C)n2nc3c(c2C1=O)CN(C(=O)c1ccc(Cl)c(C(F)(F)F)c1)[C@H](C)C3 (single isomer, unassigned) [Compound 53A, (3R,7R)-2-(4-chloro-3-(trifluoromethyl)benzoyl)-9-((R*)-1-(1-isopropyl-6-oxo-1,6-dihydropyridazin-4-yl)ethyl)-3,7-dimethyl-1,2,3,4,8,9-hexahydropyrido[4′,3′:3,4]pyrazolo[1,5-a]pyrazin-10(7H)-one] | 0.24 | > 50 | 1.85 |  |  |
